# Measurements from ChEMBL document CHEMBL1201862, “PubChem BioAssay data set” (2004).
# Where “and” joins values, the source holds several entries; their conditions need not be identical. Identical values can stand only once.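 Cultured in 96-well plates, cells were exposed to test compound for 48 hours across five concentrations. GI50: concentration for 50% inhibition of growth.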 Calls of active or inactive are those of the source. Rule as the data show it: active = GI50 up to about 1.1 µM and inactive = higher.
# Assays:
# Assay in all cases: DTP human tumour cell line panel, 48 h
# [1] = test system: SK-OV-3
# [2] = test system: SK-MEL-28
# [3] = test system: HL-60
# [4] = test system: NCI-H460
# [5] = test system: MDA-N
# [6] = test system: SN12C
# [7] = test system: CAKI-1
# [8] = test system: OVCAR-5
# [9] = test system: SNB-75
# [10] = test system: NCI-H522
# [11] = test system: HCC 2998
# [12] = test system: MDA-MB-435
# [13] = test system: HCT-15
# [14] = test system: OVCAR-8
# [15] = test system: M14
# [16] = test system: UACC-257
# [17] = test system: UACC-62
# [18] = test system: KM12
# [19] = test system: 786-0
# [20] = test system: HCT-116
SMILES,GI50 [1],GI50 [2],GI50 [3],GI50 [4],GI50 [5],GI50 [6],GI50 [7],GI50 [8],GI50 [9],GI50 [10],GI50 [11],GI50 [12],GI50 [13],GI50 [14],GI50 [15],GI50 [16],GI50 [17],GI50 [18],GI50 [19],GI50 [20]
CN(C)c1ccc(-c2c(C#N)c(O)n(NS(=O)(=O)c3ccccc3)c(=O)c2C#N)cc1,0.377 µM (active),> 100 µM (inactive),> 100 µM (inactive),> 100 µM (inactive),> 100 µM (inactive),> 100 µM (inactive),> 100 µM (inactive),0.912 µM (active),> 100 µM (inactive),> 100 µM (inactive),> 100 µM (inactive),> 100 µM (inactive),> 100 µM,> 100 µM (inactive),0.643 µM (active),> 100 µM (inactive),> 100 µM (inactive),> 100 µM (inactive),> 100 µM (inactive),> 100 µM (inactive)
CC[C@@]1(O)C(=O)OCc2c1cc1n(c2=O)Cc2c-1nc1ccccc1c2/C=N\NC(=O)C(N)=O,0.467 µM (active),17.8 µM (inactive),0.0582 µM (active),0.0559 µM (active),5.61 µM (inactive),0.172 µM (active),0.0655 µM (active),25.8 µM (inactive),0.558 µM (active),0.333 µM (active),2.25 µM (inactive),2.32 µM (inactive),14.7 µM,0.248 µM (active),0.208 µM (active),14.4 µM (inactive),0.0332 µM (active),> 92.3 µM (inactive),0.0705 µM (active),0.161 µM (active)
COc1ccc2nc3cc(Cl)ccc3c(NCCCNCc3cc(OC)c(OC)c(OC)c3)c2c1,1.81 µM (inactive),1.67 µM (inactive),0.895 µM (active),1.64 µM (inactive),1.82 µM (inactive),1.53 µM (inactive),1.71 µM (inactive),1.69 µM (inactive),,1.5 µM (inactive),1.75 µM (inactive),1.82 µM (inactive),1.54 µM,1.77 µM (inactive),1.65 µM (inactive),1.94 µM (inactive),1.91 µM (inactive),1.64 µM (inactive),1.4 µM (inactive),1.24 µM (inactive)
CC(=O)c1sc2c(c1OC(=O)c1ccc(Cl)cc1Cl)c(=O)n(-c1ccccc1)c(=S)n2-c1ccccc1,0.3 µM (active),0.475 µM (active),3.81 µM (inactive),1.99 µM (inactive),0.741 µM (active),0.369 µM (active),1.43 µM (inactive),0.64 µM (active),0.472 µM (active),1.2 µM (inactive),6.37 µM (inactive),1 µM (active),2.18 µM,0.418 µM (active),0.303 µM (active),3.88 µM (inactive),10.8 µM (inactive),4.14 µM (inactive),0.47 µM (active),2.96 µM (inactive)
COC(=O)c1c(O)ccc2[nH]c3c(O)c4ccccc4cc3c12,33.6 µM (inactive),35 µM (inactive),14.1 µM (inactive),24.1 µM (inactive),28.4 µM (inactive),43.6 µM (inactive),18.5 µM (inactive),76.9 µM (inactive),,32 µM (inactive),13.9 µM (inactive),27.9 µM (inactive),20.5 µM,20.2 µM (inactive),30.2 µM (inactive),34.1 µM (inactive),61.4 µM (inactive),16 µM (inactive),32 µM (inactive),16.7 µM (inactive)
CC1C2CC(CC2N)C1(C)C (stereo not given),> 100 µM (inactive),> 100 µM (inactive),> 100 µM (inactive),> 100 µM (inactive),> 100 µM (inactive),> 100 µM (inactive),> 100 µM (inactive),> 100 µM (inactive),> 100 µM (inactive),> 100 µM (inactive),> 100 µM (inactive),> 100 µM (inactive),,> 100 µM (inactive),> 100 µM (inactive),> 100 µM (inactive),> 100 µM (inactive),> 100 µM (inactive),> 100 µM (inactive),> 100 µM (inactive)
O=c1c(-c2ccccc2F)coc2cc(F)ccc12,> 100 µM (inactive),> 100 µM (inactive),70.6 µM (inactive),> 100 µM (inactive),> 100 µM (inactive),> 100 µM (inactive),> 100 µM (inactive),> 100 µM (inactive),24.2 µM (inactive),37.7 µM (inactive),,> 100 µM (inactive),> 100 µM,> 100 µM (inactive),> 100 µM (inactive),> 100 µM (inactive),> 100 µM (inactive),> 100 µM (inactive),79.6 µM (inactive),> 100 µM (inactive)
COc1ccc(C2Oc3c(OC)cc(CCCO)cc3C2CO)cc1OC (stereo not given),> 100 µM (inactive),74 µM (inactive),43.8 µM (inactive) and 65.3 µM (inactive),> 100 µM (inactive),93.1 µM (inactive) and 71.4 µM (inactive),> 100 µM (inactive),,> 100 µM (inactive),> 100 µM (inactive) and 77.3 µM (inactive),86.7 µM (inactive),> 100 µM (inactive),70 µM (inactive) and 93.5 µM (inactive),> 100 µM,> 100 µM (inactive) and 89.3 µM (inactive),> 100 µM (inactive),,54.6 µM (inactive) and 83.9 µM (inactive),> 100 µM (inactive) and 79.3 µM (inactive),> 100 µM (inactive),> 100 µM (inactive)
CC(=O)OC[C@]1(C(=O)C(O)c2ccoc2)[C@H](C)CC[C@@]23COC(=O)C2=CCC[C@@H]31 (stereo not given in full),> 10 µM (inactive),,> 10 µM (inactive),> 10 µM (inactive),> 10 µM (inactive),> 10 µM (inactive),> 10 µM (inactive),> 10 µM (inactive),> 10 µM (inactive),> 10 µM (inactive),> 10 µM (inactive),> 10 µM (inactive),> 10 µM,> 10 µM (inactive),> 10 µM (inactive),> 10 µM (inactive),> 10 µM (inactive),> 10 µM (inactive),> 10 µM (inactive),> 10 µM (inactive)
O=c1c2cc(I)ccc2nc(-c2cccs2)n1-c1ccc(O)cc1,,16 µM (inactive),7.82 µM (inactive),14.9 µM (inactive),14.6 µM (inactive),15.5 µM (inactive),17.1 µM (inactive),15.5 µM (inactive),,13.1 µM (inactive),16.1 µM (inactive),12 µM (inactive),12.4 µM,15.5 µM (inactive),15.8 µM (inactive),< 0.01 µM (active),13.1 µM (inactive),11.2 µM (inactive),16.3 µM (inactive),14.3 µM (inactive)
COC(=O)CNC(=O)C(Cc1ccccc1)NC(=O)c1ccc(-c2ccc(Cl)cc2Cl)o1 (stereo not given),24.9 µM (inactive),43.8 µM (inactive),12.2 µM (inactive),15.2 µM (inactive),24.8 µM (inactive),26.3 µM (inactive),19.2 µM (inactive),28.4 µM (inactive),30.9 µM (inactive),13.4 µM (inactive),,26.9 µM (inactive),23.3 µM,25.1 µM (inactive),30.9 µM (inactive),17.8 µM (inactive),13.6 µM (inactive),24.4 µM (inactive),16.9 µM (inactive),14.8 µM (inactive)
O=C(N/N=C\c1cccc2ccccc12)Nc1cccc2ccccc12,,32.9 µM (inactive),4.32 µM (inactive),5.43 µM (inactive),3.84 µM (inactive),41.9 µM (inactive),25.7 µM (inactive),> 100 µM (inactive),6.61 µM (inactive),18.6 µM (inactive),33.7 µM (inactive),3.95 µM (inactive),5.73 µM,32.4 µM (inactive),28.8 µM (inactive),27.3 µM (inactive),,11 µM (inactive),11.7 µM (inactive),13.9 µM (inactive)
COC(=O)C1C2CCCN2OC1(C)CO (stereo not given),> 100 µM (inactive),> 100 µM (inactive),> 100 µM (inactive),> 100 µM (inactive),> 100 µM (inactive),> 100 µM (inactive),> 100 µM (inactive),> 100 µM (inactive),> 100 µM (inactive),> 100 µM (inactive),,> 100 µM (inactive),> 100 µM,> 100 µM (inactive),> 100 µM (inactive),> 100 µM (inactive),> 100 µM (inactive),> 100 µM (inactive),> 100 µM (inactive),> 100 µM (inactive)
O=C(CCCN1CCC2(CC1)/C(=N/C1CCCCC1)NC(=O)N2c1ccccc1)c1ccc(F)cc1,,18.6 µM (inactive),23.1 µM (inactive),22.7 µM (inactive),18.2 µM (inactive),18.4 µM (inactive),> 100 µM (inactive),20.9 µM (inactive),17.2 µM (inactive),24.7 µM (inactive),20.6 µM (inactive),20.1 µM (inactive),28.3 µM,28.4 µM (inactive),17.6 µM (inactive),21.5 µM (inactive),22.3 µM (inactive),19.8 µM (inactive),20.8 µM (inactive),21.3 µM (inactive)
C#CCn1c(=O)c(I)cn(/C(=C/C(=O)OCC)C(=O)OCC)c1=O,17.9 µM (inactive),8 µM (inactive),1.64 µM (inactive),23.4 µM (inactive),3.37 µM (inactive),15.9 µM (inactive),1.86 µM (inactive),16.2 µM (inactive),17.2 µM (inactive),0.649 µM (active),,7.6 µM (inactive),2.74 µM,3.56 µM (inactive),1.78 µM (inactive),3.06 µM (inactive),5.42 µM (inactive),18 µM (inactive),1.63 µM (inactive),1.85 µM (inactive)
